From patent US8673851B2, “Synapse-specific proteins in glomeruli” (priority 2005, dated 2014)
Counter-ions that a name gives are not always drawn.

What was measured:
podocytes [1] = experiment: [3H]-L-glutamate uptake; assay type: cell-based, mouse
Procedure: Podocytes were seeded at a density of 15,000 cells/well in 48-well plates, Two days later the culture medium was removed, the adherent washed two times with 0.5 mL/well of assay buffer (10 mM Tris-acetate, 128 mM NaCl, 10 mM D-glucose, 5 mM KCl, 1.5 mM NaH2PO4, 1 mM MgSO4, 1 mM CaCl2, pH 7.4) and then incubated for 15 min at 35° C. in assay buffer (0.3 mL/well) containing 100 nM [3H]-L-glutamate (Amersham, specific activity 47.0 Ci/mmol) with or without different concentrations of cold L-glutamate (from 1 to 1000 μM). Non-specific uptake was determined in parallel samples incubated in a Na+-free buffer (NaCl replaced by cholineCl). […]
In preliminary experiments it was established that the uptake of [3H]-Lglutamate was linear at least up to 15 min (not shown). Cells were then added with 0.3 mL/well of SDS and, after 2 hours on shaking plate, the well content was counted in 4 mL of Ultima Gold MV (Packard Bioscience, Groningen, the Netherlands) in an LKB 1214 Rackbeta liquid scintillation counter with a counting efficiency of about 60%.
Km and Vmax of L-glutamate uptake were determined by fitting the inhibition curve using the “homologous competitive binding curve” equation built into GrapPad Prism version 4.00 for Windows (GraphPad Software, San Diego Calif. USA). […]

podocytes [2] = assay type: cell-based; conditions: for Calcium content (Fluo4) / Intra-vesicle pH (Lysosensor green) / Membrane potential (RH-414 accumulation and discharge): during stimulated exocytosis
cell membranes = conditions: higher concentrations (>10 nM); cited from earlier work
cultured podocytes = experiment: Rab3A and glutamate staining of cultured podocytes before and after α-latrotoxin stimulus; assay type: cell-based, mouse; conditions: after nanomolar α-latrotoxin treatment
Excerpt: Panel b)-e): Rab3A (b, d) and glutamate (c, e) staining of cultured podocytes before (b, c) and after (d, e) nanomolar α-latrotoxin stimulus. Disappearance of most labeling from the processes of podocytes is evident after stimulation (indirect immunofluorescence, 450×).

primary podocytes = experiment: Synaptic vesicle recycling with styryl dye FM1-43; assay type: cell-based
Excerpt: The recycling of synaptic vesicles in nerve terminals is a complex multistep process, whose investigation has been made feasible by the use of styryl dyes. These molecules, that reversibly insert into the surface of lipid membranes, have no fluorescent properties in aqueous solution, but become intensely fluorescent upon membrane binding, allowing a labelling of recycling synaptic vesicles that is easily detectable by fluorescence microscopy.

cultured mouse podocytes = experiment: α-latrotoxin-stimulated glutamate release (enzymatic GDH/NADH assay); assay type: cell-based
Procedure: α-Latrotoxin stimulated glutamate release was detected by an enzymatic assay based on the following reaction that occurs in presence of glutamate dehydrogenase (GDH): Glutamate−+NAD++H20 ketoglutarate2−+NADH+[…]H+.
Briefly, to this purpose, the same numbers of podocytes obtained from normal mouse glomeruli were plated and grown to semiconfluence. Before measurements, cells were washed and re-suspended for 1 hour at 37° C. in DME incubation buffer (NaCl 109.5 mM, KCl 5.3 mM, glucose 5.5 mM with MgCl2 1 mM, Hepes 20 mM). The medium was further supplemented with GDH (Sigma 60 U/ml) and NAD+ (Sigma 1 mM), and incubated for 5 min. Then, α-latrotoxin was added at subnanomolar (0.5 nM) or nanomolar (2.5 nM) concentration and spectrophotometric increase of optical density (O.D.) due to increase of NADH was monitored at 340 nm. 200 nM Bafilomycin A1 (Sigma), a V-ATPase inhibitor that dissipates the electrochemical proton gradient necessary for glutamate uptake and storage into vescicles43, was added for 30 min at 37° C. to control cell plates before α-latrotoxin stimulation.

primary mouse podocytes = experiment: Phalloidin staining of the actin cytoskeleton; assay type: cell-based; conditions: 24 h, 50 mM norketamine hydrochloride
Procedure: A Phalloidin staining of primary mouse podocytes after 24 h medium incubation. The actin cytoskeleton is intact. Rhodamine-phalloidin, 100×)
B Phalloidin staining of primary mouse podocytes after 24 h 50 mM norketamine hydrochloride incubation. […] (Rhodamine-phalloidin, 100×)
By immunohistochemistry, we have observed a variation of positivity, either increased or decreased, for other synaptic proteins, such as synapsin 1 (antibody from Abeam), and the ionotropic glutamate receptor NMDA-1 in a variety of human glomerulonephritis (FIG. 12).

primary podocyte = experiment: BDNF incubation, process formation (bright-field); assay type: cell-based; conditions: 250 ng/ml, 20 hour incubation
Procedure: FIG. 18 • A) Bright-field image (200×) showing the in vivo appearance of a primary podocyte before BDNF treatment. • B) The same field is taken after 20 h of BDNF incubation. The cell has produced a number of processes starting from its body.
We have also observed that podocytes are sensitive to 250 ng/ml BDNF (Brain Derived Neurotrophic Factor) (Sigma): after 20 hour incubation with BDNF, in fact, the number of processes extending from the podocyte cell body are increased (FIG. 18).

In the case of `N[C@@H](CCC(=O)O)C(=O)O` [L-glutamate], the Km (podocytes [1]; Na+-dependent uptake, 100 nM [3H]-L-glutamate, 15 min at 35° C.) is reported as 83 µM and the “Vmax of L-glutamate uptake” value (podocytes [1]; estimated, 15,000 cells/well seeded) is reported as “about 2 pmol/min/well”.

With α-latrotoxin the “Calcium content (Fluo4)” value (podocytes [2]) was “rapid variation in calcium content”, the “Intra-vesicle pH (Lysosensor green)” value (podocytes [2]) was “variation of intra-vesicle pH” and the “Membrane potential (RH-414 accumulation and discharge)” value (podocytes [2]) was “rapid variation of the membrane potential”. For the same molecule, the “Damage to cell membranes” value (cell membranes) was “highly damaging for cell membranes”, the “Glutamate labeling of cell processes by immunohistochemistry” value (cultured podocytes) was “disappearance of most glutamate from cell processes” and the “Rab3A distribution by immunohistochemistry” value (cultured podocytes) was “redistribution of Rab3A”. For the same molecule, the FM1-43 dye uptake (primary podocytes; a few seconds after a first α-latrotoxin stimulus) was “accumulate the styryl dye FM1-43”, the FM1-43 dye release (primary podocytes; after a second α-latrotoxin stimulation) was “almost completely discharge the dye” and the “Glutamate secretion (generation of NADH, optical density at 340 nm)” value (cultured mouse podocytes; 0.5 nM α-latrotoxin) was “continuous exocytosis”. For the same molecule, the “Glutamate secretion (generation of NADH, optical density at 340 nm)” value (cultured mouse podocytes; 2.5 nM α-latrotoxin) was “burst of neurotransmitter release, followed by steady state”.

With `[Cl-].[K+]` [KCl] the “Induction of stimulated exocytosis” value (podocytes [2]; 60 mM) was “can be induced”, the “Calcium content (Fluo4)” value (podocytes [2]) was “rapid variation in calcium content” and the “Intra-vesicle pH (Lysosensor green)” value (podocytes [2]) was “variation of intra-vesicle pH”. The “Membrane potential (RH-414 accumulation and discharge)” value (podocytes [2]) was “rapid variation of the membrane potential”.

With `NC1(c2ccccc2Cl)CCCCC1=O` (centres unmarked) [norketamine hydrochloride] the “Actin cytoskeleton (rhodamine-phalloidin)” value (primary mouse podocytes) was “profound alteration of the actin cytoskeleton”.

For tetanus toxin, the “Block of exocytotic events” value (podocytes [2]) was “can be blocked”.

In the case of `CO/C1=C\C(C)=C\[C@@H](C)[C@@H](O)[C@@H](C)C/C(C)=C/C=C/[C@H](OC)[C@@H]([C@@H](C)[C@@H](O)[C@H](C)[C@@]2(O)C[C@@H](O)[C@H](C)[C@@H](C(C)C)O2)OC1=O` [bafilomycin, Bafilomycin A1], the “Glutamate release after α-latrotoxin” value (cultured mouse podocytes; bafilomycin added 30 min before latrotoxin (0.5 nM or 2.5 nM α-latrotoxin), 200 nM Bafilomycin A1) is reported as “Absence of glutamate release”.

B1: BDNF: Brain Derived Neurotrophic Factor (Sigma) (protein, UniProt P23560 19-247, looked up)
Neurotrophic factor BDNF …: APMKEANIRGQGGLAYPGVRTHGTLESVNGPKAGSRGLTSLADTFEHVIEELLDEDQKVRPNEENNKDADLYTSRVMLSSQVPLEPPLLFLLEEYKNYLDAANMSMRVRRHSDPARRGELSVCDSISEWVTAADKKTAVDMSGGTVTVLEKVPVSKGQLKQYFYETKCNPMGYTKEGCRGIDKRHWNSQCRTTQSYVRALTMDSKKRIGWRFIRIDTSCVCTLTIKRGR
In the case of B1, the “Number of processes extending from the podocyte cell body” value (primary podocyte) is reported as “increased”.
